Experimental data as given in patent US12516046B2, “2-oxo-oxazolidine-5-carboxamides as NAV1.8 inhibitors” (Merck Sharp & Dohme LLC, priority 2020, dated 2026).

Target: human Nav1.8 (Homo sapiens (Human), UniProt Q9Y5Y9)
Test: Nav1.8 Qube® Assay (automated 384-well patch-clamp)
Format: cell-based
Details: human Nav1.8 channels stably expressed in HEK 293 cells
Text: Qube® Assay Experimental Procedure

human Nav1.8, sequence (Q9Y5Y9 whole entry): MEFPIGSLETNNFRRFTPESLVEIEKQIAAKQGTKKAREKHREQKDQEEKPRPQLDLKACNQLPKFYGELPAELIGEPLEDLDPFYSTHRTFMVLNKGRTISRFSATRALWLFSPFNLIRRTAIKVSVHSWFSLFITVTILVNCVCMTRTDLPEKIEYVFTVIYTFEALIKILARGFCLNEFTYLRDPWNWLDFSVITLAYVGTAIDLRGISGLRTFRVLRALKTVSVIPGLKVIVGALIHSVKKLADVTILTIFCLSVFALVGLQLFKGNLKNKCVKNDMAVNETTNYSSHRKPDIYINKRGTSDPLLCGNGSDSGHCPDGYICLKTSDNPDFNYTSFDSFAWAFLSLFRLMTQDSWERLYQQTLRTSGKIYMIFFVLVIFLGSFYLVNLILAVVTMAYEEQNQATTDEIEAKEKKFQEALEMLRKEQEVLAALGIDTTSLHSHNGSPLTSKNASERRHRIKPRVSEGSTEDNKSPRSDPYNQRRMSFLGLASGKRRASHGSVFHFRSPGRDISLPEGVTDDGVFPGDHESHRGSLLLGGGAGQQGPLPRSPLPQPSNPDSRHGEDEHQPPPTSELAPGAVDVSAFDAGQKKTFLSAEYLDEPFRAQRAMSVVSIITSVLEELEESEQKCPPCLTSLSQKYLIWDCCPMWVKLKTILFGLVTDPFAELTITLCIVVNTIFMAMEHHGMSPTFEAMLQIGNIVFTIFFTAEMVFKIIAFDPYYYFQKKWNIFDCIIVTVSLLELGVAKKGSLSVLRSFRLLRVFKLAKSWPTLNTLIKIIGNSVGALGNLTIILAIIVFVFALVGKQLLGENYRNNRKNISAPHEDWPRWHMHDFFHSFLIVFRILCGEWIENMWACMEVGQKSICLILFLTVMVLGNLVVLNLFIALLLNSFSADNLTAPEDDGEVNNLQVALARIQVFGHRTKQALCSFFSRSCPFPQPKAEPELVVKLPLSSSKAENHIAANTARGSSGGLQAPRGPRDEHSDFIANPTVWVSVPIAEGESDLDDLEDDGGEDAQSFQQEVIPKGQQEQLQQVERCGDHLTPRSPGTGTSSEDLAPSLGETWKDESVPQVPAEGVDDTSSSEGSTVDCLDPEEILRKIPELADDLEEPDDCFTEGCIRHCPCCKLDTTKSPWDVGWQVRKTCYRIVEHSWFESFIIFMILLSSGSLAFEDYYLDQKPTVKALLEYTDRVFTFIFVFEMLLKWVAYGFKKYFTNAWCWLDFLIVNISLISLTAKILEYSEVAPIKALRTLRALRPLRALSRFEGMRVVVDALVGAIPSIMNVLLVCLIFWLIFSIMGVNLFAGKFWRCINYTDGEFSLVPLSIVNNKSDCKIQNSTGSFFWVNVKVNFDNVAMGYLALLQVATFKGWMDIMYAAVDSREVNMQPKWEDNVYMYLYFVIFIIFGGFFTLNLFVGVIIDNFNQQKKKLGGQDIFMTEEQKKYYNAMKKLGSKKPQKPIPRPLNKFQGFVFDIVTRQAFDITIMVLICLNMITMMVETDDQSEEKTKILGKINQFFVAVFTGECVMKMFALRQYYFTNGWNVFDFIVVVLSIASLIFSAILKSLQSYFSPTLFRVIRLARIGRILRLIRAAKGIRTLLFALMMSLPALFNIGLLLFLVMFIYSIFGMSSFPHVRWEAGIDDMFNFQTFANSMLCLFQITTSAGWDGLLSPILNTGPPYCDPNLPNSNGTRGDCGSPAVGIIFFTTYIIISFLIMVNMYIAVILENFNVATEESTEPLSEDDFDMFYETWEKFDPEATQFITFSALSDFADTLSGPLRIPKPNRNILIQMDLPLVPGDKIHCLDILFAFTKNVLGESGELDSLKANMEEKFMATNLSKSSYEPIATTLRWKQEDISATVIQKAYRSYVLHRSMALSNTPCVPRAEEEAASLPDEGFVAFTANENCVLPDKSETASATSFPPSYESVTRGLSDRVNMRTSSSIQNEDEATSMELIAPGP

| IC50 | SMILES |
| --- | --- |
| 46 nM | O=C1NC[C@@H](C(=O)NC(c2ccc(F)c(Cl)c2)c2ccc(F)c(OCC(F)(F)F)n2)O1 (single isomer, unassigned) [Example 1A, (S)—N—((R or S)-(3-chloro-4-fluorophenyl)(5-fluoro-6-(2,2,2-trifluoroethoxy)pyridin-2-yl)methyl)-2-oxooxazolidine-5-carboxamide] |
| 4 nM | O=C1NC[C@@H](C(=O)NC(c2ccc(F)c(Cl)c2)c2ccc(F)c(OCC(F)(F)F)n2)O1 (single isomer, unassigned) [Example 1B, (S)—N—((R or S)-(3-chloro-4-fluorophenyl)(5-fluoro-6-(2,2,2-trifluoroethoxy)pyridin-2-yl)methyl)-2-oxo-oxazolidine-5-carboxamide] |
| 0.6 nM | O=C1NC[C@@H](C(=O)NC(c2ccc(Cl)cc2)c2ccc(Cl)c(C(F)(F)F)n2)O1 (single isomer, unassigned) [Example 2A, (S)—N—((R or S)-(5-chloro-6-(trifluoromethyl)pyridin-2-yl)(4-chlorophenyl)methyl)-2-oxooxazolidine-5-carboxamide] |
| 30 nM | O=C1NC[C@@H](C(=O)NC(c2ccc(Cl)cc2)c2ccc(Cl)c(C(F)(F)F)n2)O1 (single isomer, unassigned) [Example 2B, (S)—N—((R or S)-(5-chloro-6-(trifluoromethyl)pyridin-2-yl)(4-chlorophenyl)methyl)-2-oxooxazolidine-5-carboxamide] |
| 133 nM | O=C1NC[C@@H](C(=O)NC(c2ccc(Cl)cc2)C23CCC(CC2)C3)O1 (single isomer, unassigned) [Example 3A, (S)-N-((R or S)-bicyclo[2.2.1]heptan-1-yl(4-chlorophenyl)methyl)-2-oxooxazolidine-5-carboxamide] |
| 1460 nM | O=C1NC[C@@H](C(=O)NC(c2ccc(Cl)cc2)C23CCC(CC2)C3)O1 (single isomer, unassigned) [Example 3B, (S)-N-((R or S)-bicyclo[2.2.1]heptan-1-yl(4-chlorophenyl)methyl)-2-oxooxazolidine-5-carboxamide] |
| 28 nM | O=C1NC[C@@H](C(=O)NC(c2ccc(Cl)cc2)C23CC(C(F)(F)F)(C2)C3)O1 (single isomer, unassigned) [Example 4A, (S)-N-((R or S)-(4-chlorophenyl)(3-(trifluoromethyl)bicyclo[1.1.1]pentan-1-yl)methyl)-2-oxooxazolidine-5-carboxamide] |
| 312 nM | O=C1NC[C@@H](C(=O)NC(c2ccc(Cl)cc2)C23CC(C(F)(F)F)(C2)C3)O1 (single isomer, unassigned) [Example 4B, (S)-N-((R or S)-(4-chlorophenyl)(3-(trifluoromethyl)bicyclo[1.1.1]pentan-1-yl)methyl)-2-oxooxazolidine-5-carboxamide] |
| 4.8 nM | O=C1NC[C@@H](C(=O)NC(c2ccc(F)c(Cl)c2)c2cc(C(F)(F)F)[nH]n2)O1 (single isomer, unassigned) [Example 5A, (S)—N—((R or S)-(3-chloro-4-fluorophenyl)(5-(trifluoromethyl)-1H-pyrazol-3-yl)methyl)-2-oxooxazolidine-5-carboxamide] |
| 265 nM | O=C1NC[C@@H](C(=O)NC(c2ccc(F)c(Cl)c2)c2cc(C(F)(F)F)[nH]n2)O1 (single isomer, unassigned) [Example 5B, (S)—N—((R or S)-(3-chloro-4-fluorophenyl)(5-(trifluoromethyl)-1H-pyrazol-3-yl)methyl)-2-oxooxazolidine-5-carboxamide] |
| 14900 nM | CC1(C(=O)NC(c2ccc(Cl)cc2)c2ccc(Cl)cc2)CNC(=O)O1 (single isomer, unassigned) [Example 7A, (R or S)—N-(bis(4-chlorophenyl)methyl)-5-methyl-2-oxooxazolidine-5-carboxamide] |
| 2030 nM | CC1(C(=O)NC(c2ccc(Cl)cc2)c2ccc(Cl)cc2)CNC(=O)O1 (single isomer, unassigned) [Example 7B, (R or S)—N-(bis(4-chlorophenyl)methyl)-5-methyl-2-oxooxazolidine-5-carboxamide] |
| 40 nM | O=C1NC[C@@H](C(=O)NC(COc2ccc(F)c(Cl)c2)c2ccc(F)c(Cl)c2)O1 (single isomer, unassigned) [Example 8A, (S)—N—((R or S)-2-(3-chloro-4-fluorophenoxy)-1-(3-chloro-4-fluorophenyl)ethyl)-2-oxooxazolidine-5-carboxamide] |
| 4.6 nM | O=C1NC[C@@H](C(=O)NC(COc2ccc(F)c(Cl)c2)c2ccc(F)c(Cl)c2)O1 (single isomer, unassigned) [Example 8B, (S)—N—((R or S)-2-(3-chloro-4-fluorophenoxy)-1-(3-chloro-4-fluorophenyl)ethyl)-2-oxooxazolidine-5-carboxamide] |
| 7.3 nM | O=C1NC[C@@H](C(=O)NC(c2ccc(F)c(Cl)c2F)[C@@H]2CC[C@@H](C(F)(F)F)CO2)O1 (single isomer, unassigned) [Example 9A] |
| 9.5 nM | O=C1NC[C@@H](C(=O)NC(c2ccc(F)c(Cl)c2F)[C@@H]2CC[C@@H](C(F)(F)F)CO2)O1 (single isomer, unassigned) [Example 9B] |

| IC50 | SMILES |
| --- | --- |
| 356 nM | O=C1NC[C@@H](C(=O)NC(c2ccc(F)c(Cl)c2F)[C@@H]2CC[C@@H](C(F)(F)F)CO2)O1 (single isomer, unassigned) [Example 9C] |
| 2420 nM | O=C1NC[C@@H](C(=O)NC(c2ccc(F)c(Cl)c2F)[C@@H]2CC[C@@H](C(F)(F)F)CO2)O1 (single isomer, unassigned) [Example 9D] |
| 23 nM | O=C1NC[C@@H](C(=O)NC(c2ccc(Cl)cc2)c2ccnc(C(F)(F)F)n2)O1 (single isomer, unassigned) [Example 11A, (S)-N-((R or S)-(4-chlorophenyl)(2-(trifluoromethyl)pyrimidin-4-yl)methyl)-2-oxooxazolidine-5-carboxamide] |
| 399 nM | O=C1NC[C@@H](C(=O)NC(c2ccc(Cl)cc2)c2ccnc(C(F)(F)F)n2)O1 (single isomer, unassigned) [Example 11B, (S)-N-((R or S)-(4-chlorophenyl)(2-(trifluoromethyl)pyrimidin-4-yl)methyl)-2-oxooxazolidine-5-carboxamide] |
| 16 nM | O=C1NC[C@@H](C(=O)NC(c2ccc(Cl)cc2)c2nc(C(F)(F)F)cs2)O1 (single isomer, unassigned) [Example 12A, (S)-N-((R or S)-(4-chlorophenyl)(4-(trifluoromethyl)thiazol-2-yl)methyl)-2-oxooxazolidine-5-carboxamide] |
| 323 nM | O=C1NC[C@@H](C(=O)NC(c2ccc(Cl)cc2)c2nc(C(F)(F)F)cs2)O1 (single isomer, unassigned) [Example 12B, (S)-N-((R or S)-(4-chlorophenyl)(4-(trifluoromethyl)thiazol-2-yl)methyl)-2-oxooxazolidine-5-carboxamide] |
| 573 nM | O=C1NC[C@@H](C(=O)NC(c2cncc(Cl)c2)c2ccc(F)c(Cl)c2)O1 (single isomer, unassigned) [Example 13A, (S)-N-((R or S)-(3-chloro-4-fluorophenyl)(5-chloropyridin-3-yl)methyl)-2-oxooxazolidine-5-carboxamide] |
| 190 nM | O=C1NC[C@@H](C(=O)NC(c2cncc(Cl)c2)c2ccc(F)c(Cl)c2)O1 (single isomer, unassigned) [Example 13B, (S)-N-((R or S)-(3-chloro-4-fluorophenyl)(5-chloropyridin-3-yl)methyl)-2-oxooxazolidine-5-carboxamide] |
| 21 nM | O=C1NC[C@@H](C(=O)NC(c2ccc(F)c(Cl)c2)c2ccc(Cl)cn2)O1 (single isomer, unassigned) [Example 14A, (S)-N-((R or S)-(3-chloro-4-fluorophenyl)(5-chloropyridin-2-yl)methyl)-2-oxooxazolidine-5-carboxamide] |
| 34 nM | O=C1NC[C@@H](C(=O)NC(c2ccc(F)c(Cl)c2)c2ccc(Cl)cn2)O1 (single isomer, unassigned) [Example 14B, (S)-N-((R or S)-(3-chloro-4-fluorophenyl)(5-chloropyridin-2-yl)methyl)-2-oxooxazolidine-5-carboxamide] |
| 57 nM | O=C1NC[C@@H](C(=O)NC(c2ccc(Cl)cc2)c2n[nH]c3ccccc23)O1 (single isomer, unassigned) [Example 15A, (S)-N-((R or S)-(4-chlorophenyl)(1H-indazol-3-yl)methyl)-2-oxooxazolidine-5-carboxamide] |
| 58 nM | O=C1NC[C@@H](C(=O)NC(c2ccc(Cl)cc2)c2n[nH]c3ccccc23)O1 (single isomer, unassigned) [Example 15B, (S)-N-((R or S)-(4-chlorophenyl)(1H-indazol-3-yl)methyl)-2-oxooxazolidine-5-carboxamide] |
| 239 nM | O=C1NC[C@@H](C(=O)NC(c2ccc(Cl)cc2)c2ccc(F)c(C(F)F)n2)O1 (single isomer, unassigned) [Example 16A] |
| 3.3 nM | O=C1NC[C@@H](C(=O)NC(c2ccc(Cl)cc2)c2ccc(F)c(C(F)F)n2)O1 (single isomer, unassigned) [Example 16B] |
| 593 nM | O=C1NC[C@@H](C(=O)NC(c2ccc(Cl)cc2)c2c[nH]c(C(F)(F)F)n2)O1 (single isomer, unassigned) [Example 17A, (S)-N-((R or S)-(4-chlorophenyl)(2-(trifluoromethyl)-1H-imidazol-4-yl)methyl)-2-oxooxazolidine-5-carboxamide] |

| SMILES | IC50 |
| --- | --- |
| CC1NC(=O)OC1C(=O)NC(c1ccc(Cl)cc1)c1ccc(Cl)cc1 (single isomer, unassigned) [Example 6A, (cis or trans)-N-(bis(4-chlorophenyl)methyl)-4-methyl-2-oxooxazolidine-5-carboxamide] | 442 nM |
| CC1NC(=O)OC1C(=O)NC(c1ccc(Cl)cc1)c1ccc(Cl)cc1 (single isomer, unassigned) [Example 6B, (cis or trans)-N-(bis(4-chlorophenyl)methyl)-4-methyl-2-oxooxazolidine-5-carboxamide] | 1520 nM |
